In one data set the target is T1, hMAO-A (Homo sapiens, UniProt P21397).
T1 construct: purchased Sigma-Aldrich (Steinheim, Germany)
T1 sequence (P21397 1-527): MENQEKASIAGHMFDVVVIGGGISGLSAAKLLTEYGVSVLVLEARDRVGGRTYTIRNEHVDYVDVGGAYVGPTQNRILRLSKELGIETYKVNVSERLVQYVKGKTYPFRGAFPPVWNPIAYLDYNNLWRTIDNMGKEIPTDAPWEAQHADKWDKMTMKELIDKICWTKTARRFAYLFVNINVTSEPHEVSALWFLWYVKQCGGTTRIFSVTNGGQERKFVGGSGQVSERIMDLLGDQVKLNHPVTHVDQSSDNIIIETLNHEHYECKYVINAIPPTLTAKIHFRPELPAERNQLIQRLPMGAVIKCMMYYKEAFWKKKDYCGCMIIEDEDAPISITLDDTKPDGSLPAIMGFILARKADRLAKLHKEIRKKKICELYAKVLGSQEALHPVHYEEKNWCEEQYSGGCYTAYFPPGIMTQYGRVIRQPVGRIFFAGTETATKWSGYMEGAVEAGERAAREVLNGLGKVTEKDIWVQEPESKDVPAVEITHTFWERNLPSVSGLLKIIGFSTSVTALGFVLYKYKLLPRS
Kind of data set: MAO-A inhibition assay (in vitro fluorometric Amplex Red method). In kind it is biochemical.

The target of the next data set is T2, hMAO-B (Homo sapiens, UniProt P27338).
T2 construct: purchased Sigma-Aldrich (Steinheim, Germany)
T2 sequence (P27338 1-520): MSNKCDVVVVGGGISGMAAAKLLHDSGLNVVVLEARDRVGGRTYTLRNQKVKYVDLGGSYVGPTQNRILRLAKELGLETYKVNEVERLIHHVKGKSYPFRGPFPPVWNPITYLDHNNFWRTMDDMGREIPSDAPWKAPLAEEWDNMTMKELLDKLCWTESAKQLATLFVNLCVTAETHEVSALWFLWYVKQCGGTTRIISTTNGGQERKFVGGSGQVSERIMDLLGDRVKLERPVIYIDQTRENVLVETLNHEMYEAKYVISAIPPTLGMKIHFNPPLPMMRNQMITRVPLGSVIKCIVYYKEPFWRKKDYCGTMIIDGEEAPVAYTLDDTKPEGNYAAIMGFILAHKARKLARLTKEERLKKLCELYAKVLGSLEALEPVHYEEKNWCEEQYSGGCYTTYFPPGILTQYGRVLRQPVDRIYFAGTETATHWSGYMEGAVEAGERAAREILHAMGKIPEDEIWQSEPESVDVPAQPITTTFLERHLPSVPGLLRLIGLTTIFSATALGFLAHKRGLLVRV
The data set is described as follows: MAO-B inhibition assay (in vitro fluorometric Amplex Red method). The format is biochemical.

`C(=NNc1ccccc1)c1ccc(-n2ccnc2)cc1` [Compound 2i, 1-(4-(1-Imidazolyl)benzylidene)-2-phenylhydrazine] registered a melting point of 201.9 to 208.9 °C. For the same compound, the inhibition at 1000 µM on hMAO-A (10^−3 M) turned out to be 40.9 ± 0.9%. Moreover, at hMAO-A (10^−4 M), the inhibition at 100 µM amounted to 18.3 ± 0.618%. Also, at hMAO-B (10^−3 M), the inhibition at 1000 µM was determined as 38.2 ± 1.09%. Also, the inhibition at 100 µM against hMAO-B (10^−4 M) is 30.7 ± 0.707%.
On to `Fc1ccc(Oc2ccc(C=NNc3ccccc3)cc2)cc1` [Compound 2g, 1-(4-(4-Fluorophenoxy)benzylidene)-2-phenylhydrazine], for which the melting point was 121.3 to 124.9 °C. For the same compound, at hMAO-A (10^−3 M), the inhibition at 1000 µM is 54.5 ± 1%. Besides, 100 µM produced 20.4 ± 0.469% inhibition on hMAO-A (10^−4 M). Moreover, the inhibition at 1000 µM against hMAO-B (10^−3 M) stood at 21.7 ± 0.52%. The compound further yielded an inhibition at 100 µM against hMAO-B (10^−4 M) of 17.1 ± 0.412%.
On the same counts, the results for `COc1ccc(Sc2ccc(C=NNc3ccccc3)cc2)cc1` [Compound 2f, 1-(4-((4-Methoxyphenyl)thio)benzylidene)-2-phenylhydrazine] are 178.1 to 184.3 °C, 30.5 ± 0.817%, 26.7 ± 0.748%, 33.3 ± 0.833% and 21.9 ± 0.416%.
On the same counts, the results for `C(=NNc1ccccc1)c1ccc(N2CCN(c3ccccc3)CC2)cc1` [Compound 2c, 1-(4-(4-Phenylpiperazine-1-yl)benzylidene)-2-phenylhydrazine] are 149.4 to 160.9 °C, 70.9 ± 1.06%, 43.2 ± 0.861%, 38.5 ± 0.732% and 34.7 ± 0.556%.
As for `O=C(NCCN1CCOCC1)c1ccc(Cl)cc1` [Moclobemide, reference compound], at hMAO-A (10^−4 M), the inhibition at 100 µM worked out at 82.1 ± 2.69%. At hMAO-A (10^−5 M), this compound displayed an inhibition at 10 µM of 60.5 ± 2.56%. At hMAO-A (10^−6 M), this compound came in with an inhibition at 1 µM of 36.2 ± 1.98%. This compound registered an inhibition at 0.1 µM against hMAO-A (10^−7 M) of 22.1 ± 1.34%. This compound also returned an inhibition at 0.01 µM against hMAO-A (10^−8 M) of 18.2 ± 0.812%. In addition, the inhibition at 0.001 µM against hMAO-A (10^−9 M) is 14.1 ± 0.725%.
`COc1ccc(Oc2ccc(C=NNc3ccccc3)cc2)cc1` [Compound 2e, 1-(4-(4-Methoxyphenoxy)benzylidene)-2-phenylhydrazine] showed a melting point of 170.9 to 174.9 °C. Moreover, testing at 1000 µM against hMAO-A (10^−3 M) gave an inhibition of 32.5 ± 0.844%. Further, at hMAO-A (10^−4 M), the inhibition at 100 µM is 25 ± 0.425%. Moreover, the inhibition at 1000 µM at hMAO-B (10^−3 M) came to 26.5 ± 0.478%. On hMAO-B (10^−4 M), at 100 µM the inhibition was 19.4 ± 0.327%.
Turning to `C(=NNc1ccccc1)c1ccc(-n2cncn2)cc1` [Compound 2j, 1-(4-(1H-1,2,4-triazole-1-yl)benzylidene)-2-phenylhydrazine], the melting point is 127.4 to 132.2 °C. At hMAO-A (10^−3 M), this compound returned an inhibition at 1000 µM of 38.6 ± 0.743%. In addition, the inhibition at 100 µM at hMAO-A (10^−4 M) amounted to 33 ± 0.66%. Besides, the inhibition at 1000 µM against hMAO-B (10^−3 M) amounted to 27.5 ± 0.633%. For the same compound, testing at 100 µM on hMAO-B (10^−4 M) gave an inhibition of 22.1 ± 0.419%.
With `CN(C)CCN1CCN(c2ccc(C=NNc3ccccc3)cc2)CC1` [Compound 2m], the “MAO-A Inhibition %” value at hMAO-A (10^−3 M) came out at 68.276 ± 1.048%; at hMAO-A (10^−4 M), 39.471 ± 0.719%. Besides, the “MAO-B Inhibition %” value on hMAO-B (10^−3 M) is recorded as 41.072 ± 0.732%; on hMAO-B (10^−4 M), 27.607 ± 0.961%.
On the same counts, the results for `C(=NNc1ccccc1)c1ccc(N2CCC(Cc3ccccc3)CC2)cc1` [Compound 2l, 1-(4-(Benzylpiperidine)benzylidene)-2-phenylhydrazine] are 74.251 ± 1.614%, 44.828 ± 0.917%, 45.194 ± 0.692% and 28.560 ± 0.629%.
In turn, `Fc1ccc(Sc2ccc(C=NNc3ccccc3)cc2)cc1` [Compound 2h, 1-(4-((4-Fluorophenyl)thio)benzylidene)-2-phenylhydrazine] displayed a melting point of 132.3 to 133.9 °C. The inhibition at 1000 µM against hMAO-A (10^−3 M) was found to be 28.6 ± 0.57%. Moreover, at 100 µM the inhibition at hMAO-A (10^−4 M) was 21 ± 0.548%. Besides, the inhibition at 1000 µM against hMAO-B (10^−3 M) stood at 30.2 ± 0.574%. In addition, on hMAO-B (10^−4 M), at 100 µM the inhibition was 24.1 ± 0.355%.
Take `COc1ccc(N2CCN(c3ccc(C=NNc4ccccc4)cc3)CC2)cc1` [Compound 2d, 1-(4-(4-(4-Methoxyphenyl)piperazine-1-yl)benzylidene)-2-phenylhydrazine]: the melting point lay within 141.2 to 150.4 °C. On hMAO-A (10^−3 M), this compound had an inhibition at 1000 µM of 68.6 ± 1.5%. Testing at 100 µM against hMAO-A (10^−4 M) gave an inhibition of 40.2 ± 0.97%. The same compound yielded an inhibition at 1000 µM against hMAO-B (10^−3 M) of 39.2 ± 0.863%. Also, on hMAO-B (10^−4 M), at 100 µM the inhibition was 30.6 ± 0.613%.
For `CN(C)CCCN1CCN(c2ccc(C=NNc3ccccc3)cc2)CC1` [Compound 2n], the results for the “MAO-A Inhibition %” value at hMAO-A (10^−3 M) and at hMAO-A (10^−4 M) were 64.435 ± 1.104% and 36.154 ± 0.817%, respectively. For the same compound, the “MAO-B Inhibition %” value was 40.629 ± 0.933% at hMAO-B (10^−3 M) and 29.068 ± 0.734% on hMAO-B (10^−4 M).
In the case of `Clc1ccc(Sc2ccc(C=NNc3ccccc3)cc2)cc1` [Compound 2k, 1-(4-((4-Chlorophenyl)thio)benzylidene)-2-phenylhydrazine], the melting point lay within 164.4 to 165.7 °C. At hMAO-A (10^−3 M), this compound showed an inhibition at 1000 µM of 29.2 ± 0.672%. The compound also yielded an inhibition at 100 µM against hMAO-A (10^−4 M) of 21.5 ± 0.468%. The compound further showed an inhibition at 1000 µM against hMAO-B (10^−3 M) of 36.3 ± 0.774%. For the same compound, 100 µM produced 19 ± 0.825% inhibition against hMAO-B (10^−4 M).

By melting point is commonly meant the temperature of the solid-liquid transition. A word on the inhibition: it is the drop in the measured response relative to a control, in per cent. Read a high inhibition as a strong effect.
